Assay [1] relates to Staphylococcus aureus-SMITH (GC 4543). Kind of assay: Acute lethal infection in mice (ED50). The format is in vivo. The note with it: female CD-1 mice, intraperitoneal challenge, intravenous dose 30 min. after infection, 7 day survival ratios. The procedure: The therapeutic effects of glycopeptide antibiotics of Formula I are determined against acute lethal infections with S. aureus (strain Smith), a penicillin resistant strain of S. pneumoniae (strain GC 1894), and a vancomycin resistant strain of E. fecalis (strain GC 6189 and GC 2246). Female mice, CD-1 (Charles River Laboratories), 20 +1-2 gm, are challenged by intraperitoneal injection of sufficient bacteria (suspended in Trypticase Soy Broth or hog gastric mucin) to kill non-treated controls within 24-48 hr. Antibacterial agents, contained in 0.2 mL of saline or 5% dextrose solution, are administered intravenously 30 min. after infection. Five mice are treated at each dose level. The 7 day survival ratios from 3 separate tests are pooled for calculation of median effective dose (ED50).

The next assay deals with Streptococcus sp. Description: In vitro antibacterial evaluation: minimum inhibitory concentration (MIC), broth dilution method. It is filed as cell-based. In outline: (§1)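 Inoculum: 5×10^5 CFU/mL. Range: 64-0.06 μg/mL. Medium: Muller-Hinton II […]; NCCLS M7-A2 broth dilution. Endpoint: lowest concentration inhibiting growth. Strains include methicillin-, penicillin- and/or vancomycin-resistant clinical isolates.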
On the technique in general: In broth dilution the organism is exposed to a series of concentrations in liquid medium.

A further assay has as its system Enterococcus sp. The description is as above. The note with it: for MIC Enterococcus faecalis (ATCC 29212): strain ATCC 29212; for MIC Enterococcus faecalis (GC 4552): strain GC 4552. It is filed as cell-based. In outline: as §1
Another assay relates to Escherichia coli. Described as above. The format is cell-based. The note with it: for MIC Escherichia coli (GC 4560): strain GC 4560; for MIC Escherichia coli (GC 4559): strain GC 4559. In outline:
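MIC read as lowest drug level preventing visible growth. Organisms at 5×10^5 CFU/mL were exposed to a 64-0.06 μg/mL dilution series in Muller-Hinton II […] following NCCLS broth dilution standard M7-A2.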

The next assay concerns Staphylococcus sp. Described as above. The format is cell-based. The note with it: for MIC Coagulase Negative Staphylococcus (GC 4537): strain GC 4537; for MIC Coagulase Negative Staphylococcus (GC 4538): strain GC 4538; for MIC Coagulase Negative Staphylococcus (GC 4547): strain GC 4547; for MIC Staphylococcus aureus-SMITH (GC 4536): strain SMITH GC 4536. In outline:
as §1

Setting [2] is: Streptococcus pneumoniae (GC 1894), broth dilution, 18 hours at 35° C.
Where [3] appears, read: broth dilution, 18 hours at 35° C.

The structures appear in SMILES notation. ≈ marks a conversion by molar mass, not a printed value. Numbered stars: 1 amine (or outer) side, 2 acyl side, 3 side chain; on linkers, the order of the positions; unused ones are H or OH. Square brackets hold non-standard residues; d marks the D form. Peptide text beside a SMILES is read from it. ξ: configuration not given here. X1 = N=C1NCC(C(O)C(N[*:1])C(=O)[*:2])N1C1OC(CO)C(O)C(O)C1O; ξEnduracididine(βξ-OH,4'ξ) = N=C1NCC(C(O)C(N)C(=O)O)N1; ξPhe(βξ-Me) = CC(c1ccccc1)C(N)C(=O)O

Take `CC(c1ccccc1)C1NC(=O)CNC(=O)C(CO)NC(=O)C(C(O)C2CN(Cc3ccccc3)C(=NCc3ccccc3)N2C2OC(CO)C(O)C(O)C2O)NC(=O)C(C(O)C2CN(Cc3ccccc3)C(=NCc3ccccc3)N2Cc2ccccc2)NC(=O)C(Cc2ccc(OC3OC(CO)C(OC4OC(CO)C(O)C(O)C4O)C(O)C3O)cc2)NC1=O` (stereo not drawn) [Example 62, Cyclo[glycyl-β-methylphenylalanyl-O-(4-O-hexopyranosylhexopyranosyl)tyrosyl-3-[1,3-dibenzyl-2-(benzylimino)imidazolidin-4-yl]seryl-3-[1-benzyl-2-(benzylimino)-3-hexopyranosylimidazolidin-4-yl]serylseryl]]: the “median effective dose (ED50), Staphylococcus aureus-SMITH (GC 4543)” value (“median effective dose (ED50)” below) in assay [1] is recorded as more than 8. In addition, the “MIC Streptococcus pneumoniae (GC 1894)” value with Streptococcus sp. (setting [2]) and in the assay on Streptococcus sp. (strain GC 1894) was 64 µg/mL (≈ 36.7 µM) each time. For the same compound, in the assay with Enterococcus sp. (strain GC 4557), the “MIC Enterococcus faecium (GC 4557)” value amounted to 64 µg/mL (≈ 36.7 µM). The “MIC Escherichia coli (GC 4560)” value with Escherichia coli was 4 µg/mL (≈ 2.29 µM).
In the case of `CC(c1ccccc1)C1NC(=O)CNC(=O)C(CO)NC(=O)C(C(O)C2CNC(=N)N2C2OC(CO)C(O)C(O)C2O)NC(=O)C(C(O)C2CNC(=N)N2)NC(=O)C(Cc2ccc(O)cc2)NC1=O` (stereo not drawn) [Example 55, Cyclo[glycyl-β-methylphenylalanyltyrosyl-3-(2-iminoimidazolidin-4-yl)seryl-3-(3-hexopyranosyl-2-iminoimidazolidin-4-yl)serylseryl]] (cyclo(G[ξPhe(βξ-Me)]Y[ξEnduracididine(βξ-OH,4'ξ)][X1]S); configuration not given here), in assay [1], the “median effective dose (ED50)” value is recorded as more than 8.
For the compound `CCCCCC(=O)OCC1OC(OC2C(CO)OC(Oc3ccc(CC4NC(=O)C(C(C)c5ccccc5)NC(=O)CNC(=O)C(CO)NC(=O)C(C(O)C5CNC(=N)N5C5OC(CO)C(O)C(O)C5O)NC(=O)C(C(O)C5CNC(=N)N5)NC4=O)cc3)C(O)C2O)C(O)C(O)C1O` (stereo not drawn) [Example 95b, Cyclo[glycyl-β-methylphenylalanyl-O-[4-O-(6-O-hexanoylhexopyranosyl)hexopyranosyl]-tyrosyl-3-[2-iminoimidazolidin-4-yl)seryl-3-(3-hexopyranosyl-2-iminoimidazolidin-4-yl)-serylseryl]], the median effective dose (ED50), Staphylococcus aureus-SMITH (GC 4543) in assay [1] turned out to be 4 mg/kg. The “MIC Enterococcus faecalis (GC 2242)” value against Enterococcus sp. (Enterococcus faecalis (GC 2242), broth dilution, 18 hours at 35° C.) came to 8 µg/mL (≈ 5.74 µM). Besides, in the assay on Enterococcus sp., the “MIC Enterococcus faecalis (ATCC 29212)” value stood at 4 µg/mL (≈ 2.87 µM) and the “MIC Enterococcus faecalis (GC 4552)” value amounted to 8 µg/mL (≈ 5.74 µM). Moreover, the “MIC Enterococcus faecalis (GC 2242)” value against Enterococcus sp. (strain GC 2242) came out at 8 µg/mL (≈ 5.74 µM). In the assay with Escherichia coli, the “MIC Escherichia coli (GC 4559)” value stood at 64 µg/mL (≈ 45.9 µM) and the “MIC Escherichia coli (GC 4560)” value was less than 0.5 µg/mL. In the assay with Staphylococcus sp. (setting [3]), the “MIC Staphylococcus aureus (ATCC 29213)” value was found to be 1 µg/mL (≈ 0.718 µM), the “MIC Staphylococcus aureus (GC 1131)” value worked out at 1 µg/mL (≈ 0.718 µM), the “MIC Staphylococcus aureus (GC 4535)” value was 2 µg/mL (≈ 1.44 µM) and the “MIC Staphylococcus aureus SMITH (GC 4536)” value was determined as 1 µg/mL (≈ 0.718 µM). The “MIC Staphylococcus aureus-SMITH (GC 4536)” value in the assay with Staphylococcus sp. (setting [3]) stood at 1 µg/mL (≈ 0.718 µM). Further, in the assay on Staphylococcus sp., the “MIC Coagulase Negative Staphylococcus (GC 4537)” value stood at 2 µg/mL (≈ 1.44 µM), the “MIC Coagulase Negative Staphylococcus (GC 4538)” value was 1 µg/mL (≈ 0.718 µM) and the “MIC Coagulase Negative Staphylococcus (GC 4547)” value was determined as 1 µg/mL (≈ 0.718 µM).
As to `CC(c1ccccc1)C1NC(=O)CNC(=O)C(CO)NC(=O)C(CC2CN(Cc3ccccc3)C(=NCc3ccccc3)N2C2OC(CO)C(O)C(O)C2O)NC(=O)C(CC2CN(Cc3ccccc3)C(=NCc3ccccc3)N2Cc2ccccc2)NC(=O)C(Cc2ccc(OC3OC(CO)C(OC4OC(CO)C(O)C(O)C4O)C(O)C3O)cc2)NC1=O` (stereo not drawn) [Example 73, Cyclo[3-[1,3-benzyl-2-(benzylimino)imidazolidin-4-yl]alanyl-3-[1-benzyl-2-(benzylimino)-3-hexopyranosylimidazolidin-4-yl]alanylserylglycyl-β-methylphenylalanyl-O-(4-O-hexopyranosylhexopyranosyl)tyrosyl]], the “median effective dose (ED50)” value in assay [1] is reported as more than 8. Moreover, the “MIC Streptococcus pneumoniae (GC 1894)” value with Streptococcus sp. (setting [2]) and with Streptococcus sp. (strain GC 1894) was 64 µg/mL (≈ 37.3 µM) in each case. Further, the “MIC Escherichia coli (GC 4560)” value with Escherichia coli was 16 µg/mL (≈ 9.34 µM).
As to `CCCCCCC(=O)OCC1OC(OC2C(CO)OC(Oc3ccc(CC4NC(=O)C(C(C)c5ccccc5)NC(=O)CNC(=O)C(CO)NC(=O)C(C(O)C5CNC(=N)N5C5OC(CO)C(O)C(O)C5O)NC(=O)C(C(O)C5CNC(=N)N5)NC4=O)cc3)C(O)C2O)C(O)C(O)C1O` (stereo not drawn) [Example 97b, Cyclo[glycyl-β-methylphenylalanyl-O-[4-O-(6-O-heptanoylhexopyranosyl)hexopyranosyl]-tyrosyl-3-(2-iminoimidazolidin-4-yl)seryl-3-(3-hexopyranosyl-2-iminoimidazolidin-4-yl)-serylseryl]], the median effective dose (ED50), Staphylococcus aureus-SMITH (GC 4543) in assay [1] was determined as 8 mg/kg. In the assay on Enterococcus sp., the “MIC Enterococcus faecalis (ATCC 29212)” value is 4 µg/mL (≈ 2.84 µM) and the “MIC Enterococcus faecalis (GC 4552)” value was 4 µg/mL (≈ 2.84 µM). The “MIC Enterococcus faecalis (GC 2242)” value against Enterococcus sp. (strain GC 2242) is 2 µg/mL (≈ 1.42 µM). Also, in the assay on Escherichia coli, the “MIC Escherichia coli (GC 4559)” value came out at 32 µg/mL (≈ 22.7 µM) and the “MIC Escherichia coli (GC 4560)” value stood at 1 µg/mL (≈ 0.711 µM). Moreover, in the assay on Staphylococcus sp. (setting [3]), the “MIC Staphylococcus aureus (ATCC 29213)” value stood at 1 µg/mL (≈ 0.711 µM), the “MIC Staphylococcus aureus (GC 1131)” value came out at 1 µg/mL (≈ 0.711 µM), the “MIC Staphylococcus aureus (GC 4535)” value came to 1 µg/mL (≈ 0.711 µM) and the “MIC Staphylococcus aureus SMITH (GC 4536)” value came to 0.5 µg/mL (≈ 0.355 µM). For the same compound, in the assay with Staphylococcus sp. (setting [3]), the “MIC Coagulase Negative Staphylococcus (GC 4537)” value came out at 1 µg/mL (≈ 0.711 µM), the “MIC Coagulase Negative Staphylococcus (GC 4538)” value turned out to be 1 µg/mL (≈ 0.711 µM), the “MIC Coagulase Negative Staphylococcus (GC 4547)” value was determined as 1 µg/mL (≈ 0.711 µM) and the “MIC Staphylococcus aureus-SMITH (GC 4536)” value was determined as 0.5 µg/mL (≈ 0.355 µM). In the assay on Staphylococcus sp., the “MIC Coagulase Negative Staphylococcus (GC 4537)” value is 1 µg/mL (≈ 0.711 µM), the “MIC Coagulase Negative Staphylococcus (GC 4538)” value was found to be 1 µg/mL (≈ 0.711 µM) and the “MIC Coagulase Negative Staphylococcus (GC 4547)” value was determined as 1 µg/mL (≈ 0.711 µM).

The values above are taken from patent US8247211B2, “Glycopeptide antibiotics” (American Cyanamid Company, priority 2001, dated 2012).
